How the values were obtained:
[1] = Tissue distribution study (dorsal root ganglia) in ICR mice; format: in vivo; details: male, mouse, oral administration 20 mg/kg
Description: Experimental Example 4: Tissue distribution study of compounds in ICR mice
(§1) Experimental animals: ICR mice, male, 6-8 weeks old.
(§2) Compound preparation: 5% (final preparation volume) of DMSO was added to dissolve the test compound, and then 10% (final preparation volume) of Cremophor EL and 85% Saline were sequentially added.
Experimental design: The test compounds were administered to ICR mice as a single dose via oral administration (20 mg/kg; n = 3, 3 time points). Blood samples were collected at 0.25 h, 2 h, and 12 h after oral administration, followed by sacrifice of the animals. Dorsal root ganglia (DRG) were collected, rinsed with ice-cold normal saline to remove residual blood, blotted dry with absorbent paper, and stored at -70 °C for analysis.
Sample test: The concentrations of the compound drugs in dorsal root ganglia were determined by the LC-MS/MS method.

[2] = system: acetic acid writhing model; assay: Mouse acetic acid writhing model; format: in vivo, ICR mice; details: for Number of writhing responses: ICR mice, 60 min before 0.8% acetic acid i.p., 30 min observation, Mean + SD, n = 10
Description: Experimental Example 11: Pharmacodynamic effect study of compounds in mouse acetic acid writhing model
Experimental animals: ICR mice, male, 20-24 g.
(§3) Compound preparation: 5% (final preparation volume) of DMSO was added to dissolve the test compound, and then 10% (final preparation volume) of Cremophor EL and 85% Saline were sequentially added; an appropriate amount of Etoricoxib was weighed, 5% (final preparation volume) of DMSO was added to dissolve the test compound, and then 5% (final preparation volume) of HS-15 and 90% Saline were sequentially added.
• 1. The mice were randomly grouped based on the body weight for model establishment, with 10 animals per group. A 0.8% (v/v) acetic acid solution was intraperitoneally injected at an injection volume of 10 mL/kg. • 2. Administration and test
Administration was performed 60 min before modeling. After the acetic acid solution was injected, the number of writhing responses in mice was observed. […] The number of writhing responses was observed and recorded during two intervals: 0-15 min and 15-30 min, with a total observation duration of 30 min. Inhibition rate = (number of writhing responses in control group - number of writhing responses in administration group)/number of writhing responses in control group × 100%. The model control group was given normal saline, the positive control group 1 was given etoricoxib at 20 mg/kg, the positive control group 2 was given VX-548 at 50 mg/kg, and the remaining groups were given the compounds of the present disclosure according to the administration doses in the table below.

[3] = target: T1, Nav1.8 channels (Homo sapiens, UniProt Q9Y5Y9); assay: Manual patch-clamp, current of stably overexpressed Nav1.8 channels (resting state voltage program); format: cell-based; details: for inhibition at 0.01 µM: concentration of 10 nM
T1 construct: expressed in transfected cells
Outline: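 Whole-cell manual patch clamp on cells stably overexpressing Nav1.8, held at -120 mV and stepped to 0 mV for 50 ms every 20 s (resting-state protocol). Compounds were perfused in ascending concentrations, each for 5 min or until stable; block of peak current was calculated at steady state.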

[4] = Pharmacokinetic study in ICR mice; format: in vivo; details: male, mouse, plasma
Description: Experimental Example 3: Pharmacokinetic study of compounds in ICR mice
as §1, §2
(§4) The injection group was given free access to food and water. The oral group was fasted overnight (> 12 h) with free access to water, and was fed 4 h after administration. Blood samples were collected from the jugular vein of ICR mice at the following time points: 5 min, 15 min, 0.5 h, 1 h, 2 h, 4 h, 8 h, and 24 h after injection administration; 15 min, 0.5 h, 1 h, 2 h, 4 h, 6 h, 8 h, and 24 h after oral administration. The collected blood samples were anticoagulated, placed in an ice bath, and then centrifuged for 5 min to separate plasma. The plasma was stored at -70 °C for analysis.
Sample test: The concentrations of the designated compound drugs in plasma were determined by the LC-MS/MS method; the main pharmacokinetic parameters were calculated using the Winnolin 8.3 non-compartmental model. Pharmacokinetic test results of some compounds of the present disclosure in ICR mice

[5] = Pharmacokinetic study in SD rats; format: in vivo; details: for AUC(0-inf) / half-life / Cmax / Tmax / bioavailability: rat
Description: Experimental Example 2: Pharmacokinetic study of compounds in SD rats
Experimental animals: SD rats, male, 6-8 weeks old.
as §2
as §4, with “Experimental design: The test compounds were administered to SD rats as a single dose via intravenous and oral administration, respectively (injection: 2 mg/kg; oral administration: 10 mg/kg; n = 3). The injection” for “The injection”, “vein of SD rats at the” for “vein of ICR mice at the”, “then centrifuged at 6000 g for 5” for “then centrifuged for 5”, “The plasma samples were stored at” for “The plasma was stored at”
Sample monitoring: The concentrations of the designated compound drugs in plasma were determined by the LC-MS/MS method; the main pharmacokinetic parameters were calculated using the Winnolin 8.3 non-compartmental model.

[6] = system: formalin pain model; assay: Rat formalin pain model; format: in vivo, SD rats
Description: Experimental Example 10: Pharmacodynamic effect study of compounds in rat formalin pain model
Experimental animals: SD rats, male, 180-200 g.
as §3, with “added; the tramadol injection was diluted with normal saline to the desired concentration.” for “added.”
Each group consisted of 10 animals, and 50 µL of a 5% formalin solution was injected using a microsyringe into the right plantar region.
2. Administration and test
Based on different pharmacokinetic properties of the drugs, the administration was performed at 0 min, 60 min, and 120 min before modeling. After injection of the formalin, the number of pain responses in the rats was observed. […] Spontaneous pain responses were observed once every 5 min, and the number of pain responses in the rats within 1 min was counted, with a total observation duration of 60 min. Inhibition rate = (number of pain responses in control group - number of pain responses in administration group)/number of pain responses in control group × 100%.
Table 12. Administration information of compounds of the present disclosure in rat formalin model

[7] = Oral administration (p.o.), 20 mg/kg
[8] = in vivo, Oral administration, 10 mg/kg
[9] = male, plasma, Oral administration, 10 mg/kg
[10] = male, plasma, intravenous, Injection, 2 mg/kg

T1 sequence (Q9Y5Y9 whole entry): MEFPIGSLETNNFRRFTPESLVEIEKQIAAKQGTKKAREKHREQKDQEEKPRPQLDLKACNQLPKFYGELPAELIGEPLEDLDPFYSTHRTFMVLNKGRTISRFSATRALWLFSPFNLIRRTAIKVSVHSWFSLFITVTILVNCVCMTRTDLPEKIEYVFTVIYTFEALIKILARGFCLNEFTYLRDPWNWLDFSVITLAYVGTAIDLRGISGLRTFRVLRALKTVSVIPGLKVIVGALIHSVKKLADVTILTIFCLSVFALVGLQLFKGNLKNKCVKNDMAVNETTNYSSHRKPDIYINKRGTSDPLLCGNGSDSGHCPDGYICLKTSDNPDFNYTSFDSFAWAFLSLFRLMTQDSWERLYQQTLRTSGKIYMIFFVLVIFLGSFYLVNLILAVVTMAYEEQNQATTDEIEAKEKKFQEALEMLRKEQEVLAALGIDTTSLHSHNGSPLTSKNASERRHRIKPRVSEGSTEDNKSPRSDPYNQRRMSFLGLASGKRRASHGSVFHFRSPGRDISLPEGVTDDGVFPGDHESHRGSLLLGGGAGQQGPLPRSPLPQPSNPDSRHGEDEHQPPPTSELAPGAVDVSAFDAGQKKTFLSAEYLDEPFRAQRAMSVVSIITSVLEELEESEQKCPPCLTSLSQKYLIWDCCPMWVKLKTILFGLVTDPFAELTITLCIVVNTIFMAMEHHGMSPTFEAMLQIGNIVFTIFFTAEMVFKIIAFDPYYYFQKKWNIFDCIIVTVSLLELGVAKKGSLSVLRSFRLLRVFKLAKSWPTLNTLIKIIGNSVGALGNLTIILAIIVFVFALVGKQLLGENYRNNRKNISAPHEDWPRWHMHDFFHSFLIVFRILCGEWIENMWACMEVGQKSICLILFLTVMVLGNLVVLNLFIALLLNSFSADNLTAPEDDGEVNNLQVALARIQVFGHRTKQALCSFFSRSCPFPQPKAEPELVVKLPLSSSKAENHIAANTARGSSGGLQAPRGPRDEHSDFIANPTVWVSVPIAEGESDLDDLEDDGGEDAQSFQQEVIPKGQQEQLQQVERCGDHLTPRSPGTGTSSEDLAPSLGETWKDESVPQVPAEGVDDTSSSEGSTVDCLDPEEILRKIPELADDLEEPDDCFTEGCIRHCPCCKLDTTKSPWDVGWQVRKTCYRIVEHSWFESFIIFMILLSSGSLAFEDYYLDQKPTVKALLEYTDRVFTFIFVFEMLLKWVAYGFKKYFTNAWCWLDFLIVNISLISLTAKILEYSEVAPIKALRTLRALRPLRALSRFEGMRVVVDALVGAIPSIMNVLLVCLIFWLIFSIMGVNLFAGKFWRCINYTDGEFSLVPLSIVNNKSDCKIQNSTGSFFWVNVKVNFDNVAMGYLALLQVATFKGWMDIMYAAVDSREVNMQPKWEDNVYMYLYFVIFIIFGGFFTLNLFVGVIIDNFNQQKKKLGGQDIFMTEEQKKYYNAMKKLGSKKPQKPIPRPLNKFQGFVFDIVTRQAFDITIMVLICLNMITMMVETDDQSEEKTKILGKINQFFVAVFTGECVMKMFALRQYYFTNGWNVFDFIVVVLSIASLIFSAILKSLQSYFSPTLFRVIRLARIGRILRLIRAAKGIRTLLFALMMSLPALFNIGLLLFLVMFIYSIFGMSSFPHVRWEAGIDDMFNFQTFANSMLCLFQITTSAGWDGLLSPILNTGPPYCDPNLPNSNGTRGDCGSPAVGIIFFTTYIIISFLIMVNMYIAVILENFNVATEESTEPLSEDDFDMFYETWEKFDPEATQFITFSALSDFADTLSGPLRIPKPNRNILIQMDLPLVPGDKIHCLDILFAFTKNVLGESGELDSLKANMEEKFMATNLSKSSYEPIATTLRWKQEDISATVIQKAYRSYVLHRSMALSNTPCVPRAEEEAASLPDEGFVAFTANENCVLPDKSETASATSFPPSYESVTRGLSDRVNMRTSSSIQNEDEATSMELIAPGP

COc1c([C@@H]2C[C@](C)(C(F)(F)F)S[C@H]2C(=O)Nc2ccc3c(c2)COB3O)ccc(F)c1F [Compound 119-A, (2R,3S,5R)-3-(3,4-difluoro-2-methoxyphenyl)-N-(1-hydroxy-1,3-dihydrobenzo[c][1,2]oxaborol-5-yl)-5-methyl-5-(trifluoromethyl)tetrahydrothiophene-2-carboxamide]
concentration at 0.25 h [1]: 875 ng/g
concentration at 2 h [1]: 2580 ng/g
concentration at 12 h [1]: 199 ng/g
Number of writhing responses ([2]; Dose 50 mg/kg): 18 ± 15
inhibition of the writhing effect compared with VX-548 ([2]; mouse acetic acid writhing model): better than VX-548
IC50 [3]: 0.49 nM
AUC(0-inf) [4, 7]: 6740 ng·h/mL
AUC(0-inf) ([4]; iv, Injection (i.v.), 2 mg/kg): 842 ng·h/mL

COc1c(C2C(C(=O)Nc3ccnc(C(N)=O)c3)OC(C)(C(F)(F)F)C2C)ccc(F)c1F (racemic) [VX-548(rac)]
AUC(0-inf) ([5]; in vivo, Injection, 2 mg/kg): 2650 ng·h/mL
half-life ([5]; in vivo, Injection, 2 mg/kg): 2.64 h
AUC(0-inf) [5, 8]: 4970 ng·h/mL
Cmax [5, 8]: 577 ng/mL
Tmax [5, 8]: 2 h
bioavailability [5, 8]: 37.6%
half-life [5, 8]: 3.26 h

Cc1ccc(-c2ncc(Cl)cc2-c2ccc(S(C)(=O)=O)cc2)cn1 [Etoricoxib]
Number of writhing responses ([2]; Dose 20 mg/kg): 29 ± 11
Number of pain responses 0 min ([6]; SD rats, 30 mg/kg p.o. 60 min before 5% formalin, 0 min, Mean + SD, n = 10): 37.5±9.2
Number of pain responses 10 min ([6]; SD rats, 30 mg/kg p.o. 60 min before 5% formalin, 10 min, Mean + SD, n = 10): 2.0±2.4
Number of pain responses 15 min ([6]; SD rats, 30 mg/kg p.o. 60 min before 5% formalin, 15 min, Mean + SD, n = 10): 10.1±4.0
Number of pain responses 30 min ([6]; SD rats, 30 mg/kg p.o. 60 min before 5% formalin, 30 min, Mean + SD, n = 10): 14.3±5.3
Number of pain responses 40 min ([6]; SD rats, 30 mg/kg p.o. 60 min before 5% formalin, 40 min, Mean + SD, n = 10): 10.8±6.2
Number of pain responses 50 min ([6]; SD rats, 30 mg/kg p.o. 60 min before 5% formalin, 50 min, Mean + SD, n = 10): 5.1±8.5
Number of pain responses 60 min ([6]; SD rats, 30 mg/kg p.o. 60 min before 5% formalin, 60 min, Mean + SD, n = 10): 3.3±3.7
analgesic activity in the first and second phases ([6]; rat formalin pain model, first phase immediately after injection, second phase about 15-20 min after): superior analgesic effects in the first and second phases, respectively

COc1c([C@@H]2C[C@](C)(C(F)(F)F)S[C@H]2C(=O)Nc2ccc3nnnn3c2)ccc(F)c1F [Compound 202-A, (2R,3S,5R)-3-(3,4-difluoro-2-methoxyphenyl)-5-methyl-N-(tetrazolo[1,5-a]pyridin-6-yl)-5-(trifluoromethyl)tetrahydrothiophene-2-carboxamide]
concentration at 0.25 h [1]: 710 ng/g
concentration at 2 h [1]: 7200 ng/g
concentration at 12 h [1]: 2720 ng/g
inhibition at 0.001 µM ([3]; concentration of 1 nM, read-out: Inhibition rate %): 86.9%
AUC(0-inf) ([4]; Oral administration, 10 mg/kg): 12500 ng·h/mL
AUC(0-inf) ([4]; iv, Injection (i.v.), 2 mg/kg): 2050 ng·h/mL

COc1c(C2CC(C)(C(F)(F)F)SC2C(=O)Nc2ccnc(C(N)=O)c2)ccc(F)c1F (centres unmarked) [Compound 139, 4-(3-(3,4-difluoro-2-methoxyphenyl)-5-methyl-5-(trifluoromethyl)tetrahydrothiophene-2-carboxamido)picolinamide]
t1/2, relative to VX-548 [5]: 2 times
AUC(0-inf) [5, 9]: 9310 ng·h/mL
Cmax [5, 9]: 724 ng/mL
Tmax [5, 9]: 4 h
bioavailability [5, 9]: 48.5%
half-life [5, 9]: 6.29 h
AUC(0-inf) [5, 10]: 3840 ng·h/mL
half-life [5, 10]: 4.86 h
exposure level after oral administration, relative to VX-548 ([5]; oral administration): 2 times
IC50 [3]: 0.2 nM
inhibition at 0.01 µM ([3]; read-out: Inhibition rate %): 98.2%

COc1c([C@@H]2C[C@](C)(C(F)(F)F)S[C@H]2C(=O)Nc2ccnc(C#N)c2)ccc(F)c1F [Compound 242-A, (2R,3S,5R)-N-(2-cyanopyridin-4-yl)-3-(3,4-difluoro-2-methoxyphenyl)-5-methyl-5-(trifluoromethyl)tetrahydrothiophene-2-carboxamide]
concentration at 0.25 h [1]: 597 ng/g
concentration at 2 h [1]: 6070 ng/g
concentration at 12 h [1]: 2220 ng/g
inhibition at 0.01 µM ([3]; read-out: Inhibition rate %): 97.7%
AUC(0-inf) ([4]; Oral administration, 10 mg/kg): 18600 ng·h/mL
AUC(0-inf) ([4]; iv, Injection (i.v.), 2 mg/kg): 3480 ng·h/mL

COc1c([C@@H]2C[C@](C)(C(F)(F)F)S[C@H]2C(=O)Nc2cccc(S(N)(=O)=O)c2)ccc(F)c1F [Compound 223-A, (2R,3S,5R)-3-(3,4-difluoro-2-methoxyphenyl)-5-methyl-N-(3-sulfamoylphenyl)-5-(trifluoromethyl)tetrahydrothiophene-2-carboxamide]
concentration at 0.25 h [1]: 511 ng/g
concentration at 2 h [1]: 2360 ng/g
concentration at 12 h [1]: 635 ng/g
IC50 [3]: 0.02 nM
AUC(0-inf) [4, 7]: 50600 ng·h/mL
AUC(0-inf) ([4]; iv, Injection (i.v.), 2 mg/kg): 7200 ng·h/mL
